Laboratory results reported in article PMC8016363, “Discovery of a Remarkable Methyl Shift Effect in the Vanilloid Activity of Triterpene Amides” (Journal of Natural Products, 2020).

Columns and labels:
[1] = biological target: T1, recombinant human TRPV1 (hTRPV1) (Homo sapiens, UniProt Q8NER1); assay: TRPV1 channel assay: intracellular Ca2+ elevation (Fluo-4) in HEK-293 cells overexpressing hTRPV1; assay type: cell-based; set-up: expressed in transfected cells; host or cells: HEK-293 cells, stably transfected, selected with Geneticin
[2] = biological target: T1, recombinant human TRPV1 (hTRPV1); set-up: expressed in transfected cells; method as in PMID 23932918, PMID 30496739; settings: previously reported; cited from earlier work

T1 sequence (Q8NER1 whole entry): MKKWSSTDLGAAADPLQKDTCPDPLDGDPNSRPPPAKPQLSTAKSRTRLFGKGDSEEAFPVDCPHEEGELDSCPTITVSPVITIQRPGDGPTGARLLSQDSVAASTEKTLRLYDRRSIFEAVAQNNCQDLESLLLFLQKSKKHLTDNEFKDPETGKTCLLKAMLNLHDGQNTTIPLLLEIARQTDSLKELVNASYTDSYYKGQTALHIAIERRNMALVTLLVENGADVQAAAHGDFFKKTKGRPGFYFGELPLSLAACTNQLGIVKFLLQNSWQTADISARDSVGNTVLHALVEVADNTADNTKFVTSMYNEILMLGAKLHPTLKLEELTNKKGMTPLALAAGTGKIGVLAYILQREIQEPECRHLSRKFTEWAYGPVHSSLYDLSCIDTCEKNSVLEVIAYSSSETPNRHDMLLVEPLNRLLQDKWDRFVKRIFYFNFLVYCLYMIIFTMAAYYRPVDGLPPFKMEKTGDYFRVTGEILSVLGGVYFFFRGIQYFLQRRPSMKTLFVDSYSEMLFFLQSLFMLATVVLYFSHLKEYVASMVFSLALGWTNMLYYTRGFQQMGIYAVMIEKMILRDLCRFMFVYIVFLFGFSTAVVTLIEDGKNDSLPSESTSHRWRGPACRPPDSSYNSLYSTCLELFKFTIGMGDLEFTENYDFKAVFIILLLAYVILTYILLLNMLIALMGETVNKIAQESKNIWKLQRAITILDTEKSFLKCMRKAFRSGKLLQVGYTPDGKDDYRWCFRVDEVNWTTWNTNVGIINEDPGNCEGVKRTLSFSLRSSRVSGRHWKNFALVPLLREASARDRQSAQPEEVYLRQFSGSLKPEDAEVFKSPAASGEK

Row | SMILES | inhibition at 25 µM ([1]; HEK293, read-out: inhibition of the capsaicin response) | behaviour at TRPV1 (in words) [2] | efficacy (relative to ionomycin 4 μM) ([1]; HEK-293 cells stably transfected with hTRPV1, [Ca2+]i increase normalized to the response to ionomycin 4 μM) | EC50 ([1]; HEK-293 cells stably transfected with hTRPV1, half-maximal increase in [Ca2+]i, read-out: potency EC50) | IC50 ([1]; read-out: IC50 (capsaicin 0.1 μM), HEK-293-hTRPV1, compound added 5 min before capsaicin 100 nM, capsaicin alone = 100%)
1 | CC1(C)CC[C@]2(C(=O)O)CC[C@]3(C)C(=CC[C@@H]4[C@@]5(C)CC[C@H](O)C(C)(C)[C@@H]5CC[C@]43C)[C@@H]2C1 [2a, oleanolic acid] | 20 ± 3% | weak antagonists | – | – | –
2 | C[C@H]1[C@H](C)CC[C@]2(C(=O)O)CC[C@]3(C)C(=CC[C@@H]4[C@@]5(C)CC[C@H](O)C(C)(C)[C@@H]5CC[C@]43C)[C@H]12 [3a, ursolic acid] | – | weak antagonists | – | – | –
3 | COc1cc(CNC(=O)[C@]23CC[C@@H](C)[C@H](C)[C@H]2C2=CC[C@@H]4[C@@]5(C)CC[C@H](O)C(C)(C)[C@@H]5CC[C@@]4(C)[C@]2(C)CC3)ccc1O [3b, Ursoloyl vanillamide] | – | – | 16 ± 1 | 5.4 ± 2.3 µM | 7.5 ± 0.7 µM
